# Assay results as given in US20050014149A1, “Assay for inhibitors of translocases” (priority 2001, published 2005).
# Biological target: SV40 large T antigen (Simian virus 40, UniProt P03070)
# Assay: Homogeneous helicase assay (streptavidin displacement from biotin-labelled oligonucleotide, biotin-4-fluorescein quenching)
# Type: biochemical
# Settings: inhibitor added to the helicase assay; fluorescence ex 485 nm / em 535 nm; FIG. 4
# From the text: The helicase substrate takes the form of an oligonucleotide of length appropriate to the helicase under test that is biotinylated at one end, appropriate to the directionality of the helicase under test. In this example, a single-strand 60-mer with the sequence […] TGCATGATG was labelled with biotin at the 5′-terminus (obtained from Eurogentec, Belgium) so that it could be used as a substrate for the helicase function of the SV40 large T antigen which is a 3′-5′ helicase.
# Equal volumes of streptavidin and biotin-labelled oligonucleotide dissolved in reaction buffer (see below) were mixed in such a way that there was at least a four-fold molar excess of oligonucleotide over streptavidin. This is to ensure the saturation of all biotin-binding sites on the streptavidin molecule (4 biotin-binding sites per molecule streptavidin). This mixture was incubated for at least 15 minutes before being used for the assay.
# An aliquot of the oligonucleotide/streptavidin complex (oligo/SA) was then mixed with SV40 large T antigen and biotin-4-fluorescein in a suitable buffer, in this case 50 mM Tris-HCl pH 7.5, containing 3 mM MgCl2, 5 mM dithiothreitol and 100 μg/ml bovine serum albumin and pipetted into 384-well microplates.
# The enzyme reaction was started by adding an appropriate amount of adenosine triphosphate and incubating the plate at 37° C. […]
# Chain of SV40 large T antigen (P03070 whole entry): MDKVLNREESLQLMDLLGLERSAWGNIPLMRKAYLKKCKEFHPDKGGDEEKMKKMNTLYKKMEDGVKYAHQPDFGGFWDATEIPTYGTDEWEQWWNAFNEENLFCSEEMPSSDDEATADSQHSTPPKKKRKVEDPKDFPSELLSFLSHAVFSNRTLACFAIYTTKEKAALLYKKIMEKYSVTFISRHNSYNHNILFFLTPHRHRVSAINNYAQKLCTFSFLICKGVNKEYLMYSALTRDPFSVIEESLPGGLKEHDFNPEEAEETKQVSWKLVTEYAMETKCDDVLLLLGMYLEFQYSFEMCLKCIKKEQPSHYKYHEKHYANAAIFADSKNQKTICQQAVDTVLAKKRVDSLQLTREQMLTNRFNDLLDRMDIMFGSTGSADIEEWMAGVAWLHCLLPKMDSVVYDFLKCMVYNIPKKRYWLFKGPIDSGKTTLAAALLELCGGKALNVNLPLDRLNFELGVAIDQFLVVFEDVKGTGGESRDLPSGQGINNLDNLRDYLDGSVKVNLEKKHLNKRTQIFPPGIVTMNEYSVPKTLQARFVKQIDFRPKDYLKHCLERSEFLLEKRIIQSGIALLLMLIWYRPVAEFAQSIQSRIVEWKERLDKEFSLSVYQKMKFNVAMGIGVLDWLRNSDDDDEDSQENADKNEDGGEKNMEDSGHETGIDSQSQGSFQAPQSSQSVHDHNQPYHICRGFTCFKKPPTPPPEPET
smiles,measurement,value
Cn1cc(NC(=O)c2cc(NC(=O)c3cc(NC=O)cn3C)cn2C)cc1C(=O)NCCC(=N)N [Distamycin A],helicase activity (displacement of the streptavidin from the biotin-labelled substrate),dose-dependently decrease helicase activity
